The numbers were not newly measured in paper PMC10969742, “A Phase I Study of the Oral Dual-Acting Pan-PI3K/mTOR Inhibitor Bimiralisib in Patients with Advanced Solid Tumors” (Cancers, 2024), which cites them from elsewhere.

On the set-up of this data set: method as in PMID 28490463. The settings on record: intermittent versus daily dosing; cited from earlier work.

`Nc1nc2cc(-c3ccc4ncc(C(=O)N5CCOCC5)n4c3)ccc2o1` [TAK-117]: the “Safety profile of intermittent dosing” value is on record as “acceptable safety profile”.
